Broadly, the IC50 is the point on the concentration scale where inhibition reaches its midpoint.

Here are results for 14 substances from US6235891A, “Glucocorticoid receptor agonist and decreased PP5” (South Alabama Medical Science Foundation, priority 1999, dated 2001).

The data set has as its system PP5 mRNA. Kind of data set: Northern blot analysis of PP5 mRNA expression in A549 cells. The class given is cell-based, human. More on the design: key to Activity class in initial screen (PP5 mRNA reduction): oligonucleotides giving a reduction of PP5 mRNA of approximately 50% or greater were considered active. The following applies: for Activity class in initial screen (PP5 mRNA reduction) / Percent Inhibition of PP5 mRNA: 300 nM oligonucleotide; for Percent Inhibition of PP5 mRNA: four hours, lipofectin, approximate, compared to control. From the text:
The oligonucleotides shown in Table 1 were designed using the Genbank sequences HSSERTHRP (Genbank accession number X92121), HSRNAPPP5 (Genbank accession number X89416) and PPP5C (Genbank accession number U25174), synthesized and tested for inhibition of PP5 mRNA expression in A549 cells using a Northern blot assay. All oligonucleotides shown in Table 1 are chimeric oligonucleotides with central 2'-deoxy "gaps," which have phosphorothioate backbones, flanked on both sides by 2'-methoxyethoxy (2'-MOE) "wings" (shown in bold), which have phosphodiester backbones. All cytosines in the 2'-MOE wings are 5-methylcytosines.
In the initial screen, A549 cells were treated with oligonucleotides at a concentration of 300 nM oligonucleotide for four hours in the presence of […] lipofectin. Results were normalized and expressed as a percent of control. The effect of each oligonucleotide on levels of PP5 mRNA, expressed as approximate percent inhibition compared to control, is shown in Table 1. In this initial screen, oligonucleotides giving a reduction of PP5 mRNA of approximately 50% or greater were considered active. […] These sequences (SEQ ID NO: 1, 2, 3, 4, 6, 7 and 12, respectively, SEQ ID Nos shown in bold in Table 1) are therefore preferred.
These oligonucleotides were tested for their ability to reduce PP5 mRNA levels in A549 cells, using oligonucleotide doses of 25 to 500 nM.
The human lung tumor cell line A549 was obtained from the American Type Culture Collection (Rockville Md.) and were grown in DMEM (Gibco BRL, Gaithersburg Md.), supplemented with 10% fetal calf. Cells were seeded on 60 mm plates. When they reached 70% confluency, they were washed with DMEM and 1 ml of DMEM containing 15 μg/ml DOTMA/DOPE (Lipofectin®, GIBCO-BRL) and oligonucleotide at desired concentration was added. Duplicate dishes were used for each treatment condition. After 4 hours of treatment at 37°, cells were washed and cultured in fresh DMEM containing 10% fetal bovine serum for an additional 17 hours. Cells were then harvested and total RNA was extracted with TRIzol Reagent (GIBCO-BRL) according to manufacturer's protocol. Total RNA (20 μg) was fractionated on a 1% agarose gel containing formaldehyde, and transferred to a DURLON-UV (Stratagene) nylon membrane. Following UV crosslinking, the filters were hybridized with the appropriate protein phosphatase probe. The ^32 P-labeled human PP cDNA probes are generated with DECAPrime® DNA Labeling Kit (Ambion) according to the manufacturer's protocol. Hybridization was performed in a hybridization solution containing 50% formamide at 42° for 16 hours. This was followed by two low stringency washes (2×SSC) at room temperature and two high stringency washes (0.1×SSC/0.5% SDS) at 55° C. Hybridization signals were visualized by autoradiography, and filters were then stripped and reprobed with a ^32 P-labeled glyceraldehyde-3-phosphate dehydrogenase (GAPDH) probe to confirm equal loading. The densities of hybridization signals were measured with the NIH Image program (ImagePC).
The cells were harvested, and total RNA was extracted with TRIzol® Reagent according to the methods of the manufacturer. Total RNA (20 μg) was fractionated on 1% agarose gels containing formaldehyde and transferred to DURLON-UV nylon membranes (Stratagene). Following UV cross-linking, the filters were hybridized with a [α^32 P]probe for human PP5. The human PP5 cDNA probe was generated from the full length coding region of PP5 and [α^32 P]-dATP was labeled with DECAprime® DNA Labeling Kit according to the manufacturer's protocol. Hybridization was performed in the presence of 50% formamide, 0.1 M Pipes, 0.8 M NaCl, 5×Denhardt's solution, 100 μg/ml denatured herring sperm DNA, 1×10^6 cpm/ml [α-^32 P]-labeled probe and 10% dextran sulfate at 42° C. for 16 hours. Following hybridization, the membrane was subjected to two low stringency washes (2×SSC) at room temperature and then two high stringency washes (0.1×SSC/0.5% SDS) at 55° C. […]

For the substance “ISIS 14493: chimeric 2'-MOE/deoxy gap antisense oligonucleotide to human PP5, AUG; TCGCCCTCCGCCATCGCCAT, SEQ ID NO: 1 (sugars by position and backbone not given here; chimeric 2'-MOE wings with deoxy gap)”, the “Activity class in initial screen (PP5 mRNA reduction)” value (“Activity class … (PP5 mRNA reduction)” for short) was “active”. Regarding “ISIS 14494: chimeric 2'-MOE/deoxy gap antisense oligonucleotide to human PP5, coding; TTCAGAGCTCCATCAGCCGG, SEQ ID NO: 2 (sugars by position and backbone not given here; chimeric 2'-MOE wings with deoxy gap)”, the “Activity class … (PP5 mRNA reduction)” value is on record as “active” and the “Percent Inhibition of PP5 mRNA” value is recorded as 52%. For “ISIS 14495: chimeric 2'-MOE/deoxy gap antisense oligonucleotide to human PP5, coding; GTAGGCCAGGCTGCGGTTGC, SEQ ID NO: 3 (sugars by position and backbone not given here; chimeric 2'-MOE wings with deoxy gap)”, in that order: “active” and 66%. Turning to “ISIS 14496: chimeric 2'-MOE/deoxy gap antisense oligonucleotide to human PP5, coding; CCGCTGTACTCATCCTCAAT, SEQ ID NO: 4 (sugars by position and backbone not given here; chimeric 2'-MOE wings with deoxy gap)”, the “Activity class … (PP5 mRNA reduction)” value was “active” and the “Percent Inhibition of PP5 mRNA” value is reported as 54%.

With “ISIS 14497: chimeric 2'-MOE/deoxy gap antisense oligonucleotide to human PP5, coding; TCCCCACATACTGTAATCTT, SEQ ID NO: 5 (sugars by position and backbone not given here; chimeric 2'-MOE wings with deoxy gap)”, the “Percent Inhibition of PP5 mRNA” value is 11%. As for “ISIS 14498: chimeric 2'-MOE/deoxy gap antisense oligonucleotide to human PP5, coding; GTACTTGGCCTTCACCTCAC, SEQ ID NO: 6 (sugars by position and backbone not given here; chimeric 2'-MOE wings with deoxy gap)”, the “Activity class … (PP5 mRNA reduction)” value is recorded as “active”. On to “ISIS 14499: chimeric 2'-MOE/deoxy gap antisense oligonucleotide to human PP5, coding; CCAGGTTGTTCTCTTCCAAG, SEQ ID NO: 7 (sugars by position and backbone not given here; chimeric 2'-MOE wings with deoxy gap)”, for which the “Activity class … (PP5 mRNA reduction)” value is recorded as “active” and the “Percent Inhibition of PP5 mRNA” value is recorded as 62%.

“ISIS 14500: chimeric 2'-MOE/deoxy gap antisense oligonucleotide to human PP5, coding; AGAGCCCTGGAGGTGGATGT, SEQ ID NO: 8 (sugars by position and backbone not given here; chimeric 2'-MOE wings with deoxy gap)”: the “Percent Inhibition of PP5 mRNA” value was 41%. On to “ISIS 14501: chimeric 2'-MOE/deoxy gap antisense oligonucleotide to human PP5, stop codon; CGCCCCGCCCGTCACCTCAC, SEQ ID NO: 9 (sugars by position and backbone not given here; chimeric 2'-MOE wings with deoxy gap)”, for which the “Percent Inhibition of PP5 mRNA” value came to 42%. On the same count and under the same terms, the value for “ISIS 14502: chimeric 2'-MOE/deoxy gap antisense oligonucleotide to human PP5, 3' UTR; CCTACCCCCTCTGCAAACCT, SEQ ID NO: 10 (sugars by position and backbone not given here; chimeric 2'-MOE wings with deoxy gap)” was 40%; that for “ISIS 14503: chimeric 2'-MOE/deoxy gap antisense oligonucleotide to human PP5, 3' UTR; GCCCCAGCTGCTCCACCTCC, SEQ ID NO: 11 (sugars by position and backbone not given here; chimeric 2'-MOE wings with deoxy gap)” was 27%.

Take “ISIS 14504: chimeric 2'-MOE/deoxy gap antisense oligonucleotide to human PP5, 3' UTR; GGGCCCTATTGCTTGAGTGG, SEQ ID NO: 12 (sugars by position and backbone not given here; chimeric 2'-MOE wings with deoxy gap)”: the “Activity class … (PP5 mRNA reduction)” value is recorded as “active”. For the substance “ISIS 14505: chimeric 2'-MOE/deoxy gap antisense oligonucleotide to human PP5, 3' UTR; CCCAGCCTAGCCCCACCATG, SEQ ID NO: 13 (sugars by position and backbone not given here; chimeric 2'-MOE wings with deoxy gap)”, the “Percent Inhibition of PP5 mRNA” value stood at 23%. As for “ISIS 15523: chimeric PP5 antisense oligonucleotide, wider deoxy gap, uniformly phosphorothioate; GGGCCCTATTGCTTGAGTGG, SEQ ID NO: 12 (all phosphorothioate, sugars by position and methylation of C not given here; chimeric with deoxy gap)”, where the note is “doses of 25 to 500 nM, read-out: IC50 for reduction of PP5 mRNA levels”, the IC50 is around 100 nM.
